Reference: US20150344466A1 (SUMITOMO CHEMICAL COMPANY, LIMITED, priority 2013, published 2015)

How the values were obtained:
Assay type in all cases: in vivo
Aphis gossypii = test: Soil treatment test on Aphis gossypii on cucumber (Test Example 9); conditions: 168 h, 5 ml treatment solution in contact with soil, seven days after putting insects, read-out: controlling value
Description: On the other hand, cucumber was planted in a polyethylene cup with a plurality of small holes on the bottom and grown until the first true leaf was spread. A cup in which cucumber was planted was put in a plastic cup with 5 ml of the test treatment solution, so that the soil in the cup was in contact with the treatment liquid. After five days, about 20Aphis gossypii were allowed to parasitize the cucumber, and seven days after putting insects, the number of Aphis gossypii was investigated, and the controlling value was calculated according to the following equation. Controlling value (%)={1−(Cb×Tai)/([…])}×100 In the equation, the symbols represent as follows. Cb: the number of insects in a non-treated section before treatment Cai: the number of insects in a non-treated section on observation Tb: the number of insects in a treated section before treatment Tai: the number of insects in a treated section on observation

Musca domestica [1] = test: Filter paper/sucrose bait death rate test on Musca domestica (Test Example 5); conditions: female imagoes of Musca domestica, 0.7 ml on filter paper, after 24 hours
Procedure, shortened: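 Ten female imagoes were confined in a sealed cup over a filter paper treated with 0.7 ml of test solution and 30 mg sucrose bait. Mortality was scored at 24 h and expressed as percent of tested insects killed.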

Culex pipiens pallens [2] = test: Knockdown spray test on adult Culex pipiens pallens (Test Example 4); conditions: topical, 0.25 h, active ingredient 0.1% w/v, 0.5 ml sprayed, within 15 minutes, read-out: knockdown rate of the test insects within 15 minutes
Procedure, shortened: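 Knockdown counts were taken 2, 5 and 15 min after spraying and expressed as percent of the 10 adults tested. For the spray, 0.5 ml of solution was applied by spray gun (0.4 kg/cm^2) from 30 cm above a gauze-covered cup in a test chamber; the cup was taken out right after spraying.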

Culex pipiens pallens [3] = test: Larvicidal test on Culex pipiens pallens, eight days (Test Example 7); conditions: 192 h; last-instar larvae of Culex pipiens pallens; 3.5 ppm in water; eight days later; read-out: death rate
Description: (§1) 20 last-instar larvae of Culex pipiens pallens were released into a liquid to which 0.7 ml of the above test drug solution was added to 100 ml of ion-exchanged water (a concentration of the active ingredient of 3.5 ppm). Eight days later, the life and death of the Culex pipiens pallens was examined, and the death rate was calculated. The death rate was calculated by the following equation.
(§2) Death rate (%)=(Number of dead insects/Number of tested insects)×100

Musca domestica [4] = test: Knockdown spray test on adult Musca domestica (Test Example 3); conditions: topical, 0.25 h, active ingredient 2.0% w/v, 0.5 ml sprayed, within 15 minutes, read-out: knockdown rate of the test insects within 15 minutes
Procedure, shortened: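 Ten adult house flies (5 male, 5 female) in a gauze-covered cup sprayed with 0.5 ml test solution from 30 cm at 0.9 kg/cm^2 inside a chamber, then removed. Knocked-down flies counted at 2, 5 and 15 min and expressed as % of insects tested.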

Culex pipiens pallens [5] = test: Larvicidal test on Culex pipiens pallens, one day (Test Example 6); conditions: 24 h; last-instar larvae of Culex pipiens pallens; 3.5 ppm in water; one day later; read-out: death rate
Description: Each of the formulations of Compounds of Present Invention (39), (63), (71), (72), (92), (93), (95), (106), (150), (171), (170), (181), (182), (183), (187), (188), (189), (190), (191), (192), (200), (201), (201), (234), (246), (290) and (299) obtained in Formulation Example 15 was diluted with water, so as to have a concentration of the active ingredient of 500 ppm, to prepare a test drug solution.
as §1, with “One day” for “Eight days”
as §2

Blattella germanica [6] = test: Knockdown spray test on Blattella germanica, 2.0% w/v oil formulation (Test Example 1); conditions: topical, 0.25 h, active ingredient 2.0% w/v, 1.5 ml sprayed, within 15 minutes, read-out: knockdown rate of the test insects within 15 minutes
Procedure, shortened: (§3)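 Ten German cockroaches (5 males, 5 females) in a mesh-bottomed, butter-walled container were sprayed with 1.5 ml test solution from 60 cm at 0.42 kg/cm^2 inside a chamber.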

Plutella xylostella = test: Foliar spray test on Plutella xylostella on cabbage (Test Example 10); conditions: 120 h, third instar larvae of Plutella xylostella on cabbage, 500 ppm spray 20 ml/cup, after five days, read-out: controlling value
Procedure, shortened: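 Cabbage at the third–fourth true-leaf stage sprayed with test solution at 20 ml/cup, dried, then infested with 10 third-instar larvae. Insects counted after five days; controlling value (%) calculated from treated and non-treated counts before treatment and at observation.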

Spodoptera litura = test: Foliar spray test on Spodoptera litura on cabbage (Test Example 11); conditions: 96 h, fourth instar larvae of Spodoptera litura on cabbage, 500 ppm spray 20 ml/cup, after 4 days, read-out: controlling value
Description: On the other hand, cabbage was planted in a polyethylene cup, and grown until the third-fourth true leaf was spread. The test spray solution was sprayed to the cabbage at a ratio of 20 ml/cup. After the drug solution sprayed orn the cabbage was dried, 10 fourth instar larvae of Spodoptera litura were allowed to parasitize the cabbage. After 4 days, the number of surviving Spodoptera litura on the cabbage leaves was examined, and the controlling value was calculated according to the following equation. Controlling value (%)={1−(Cb×Tai)/([…])}×100 In the equation, the symbols represent as follows. Cb: the number of insects in a non-treated section before treatment Cai: the number of insects in a non-treated section on observation Tb: the number of insects in a treated section before treatment Tai: the number of insects in a treated section on observation

Blattella germanica [7] = test: Knockdown spray test on Blattella germanica, 0.1% w/v oil formulation (Test Example 2); conditions: topical, 0.25 h, active ingredient 0.1% w/v, 1.5 ml sprayed, within 15 minutes, read-out: knockdown rate of the test insects within 15 minutes
Procedure, shortened: as §3

Row | SMILES | pest or weed control at 500 ppm (Aphis gossypii) [%] | pest or weed control at 0.1 % strength (Culex pipiens pallens [2]) [%] | also measured
1 | CCCc1cc(C(=O)NCC2CCOC2)n(C)n1 (centres unmarked) [(3), N-(tetrahydrofuran-3-ylmethyl)-1-methyl-3-propyl-1H-pyrazole-5-carboxamide] | ≥ 90 |  | 
2 | O=C(NCC1CCOC1)c1cn(Cc2ccccc2)nn1 (centres unmarked) [(9)] | ≥ 90 |  | pest or weed control at 500 ppm (Musca domestica [1]): ≥ 90%
3 | O=C(NCCC1CCOCC1)c1cc(COCc2ccccc2)on1 [(18), N-[2-(tetrahydropyran-4-yl)ethyl]-5-benzyloxymethylisoxazole-3-carboxamide] | ≥ 90 | ≥ 80 | 
4 | CCCCn1cc(C(=O)NCC2CCOC2)cn1 (centres unmarked) [(51), N-(tetrahydrofuran-3-ylmethyl)-1-butyl-1H-pyrazole-4-carboxamide] | ≥ 90 |  | 
5 | Cn1nc(COCc2ccccc2)cc1C(=O)NCC1CCOC1 (centres unmarked) [(52), N-(tetrahydrofuran-3-ylmethyl)-3-benzyloxymethyl-1-methyl-1H-pyrazole-5-carboxamide] | ≥ 90 |  | 
6 | CCCCc1nc(C(=O)NCC2CCOC2)no1 (centres unmarked) [(57), N-(tetrahydrofuran-3-ylmethyl)-5-butyl-1,2,4-oxadiazole-3-carboxamide] | ≥ 90 |  | 
7 | CCCCc1noc(C(=O)NCC2CCOC2)n1 (centres unmarked) [(58), N-(tetrahydrofuran-3-ylmethyl)-3-butyl-1,2,4-oxadiazole-5-carboxamide] | ≥ 90 |  | 
8 | O=C(NCC1CCOC1)c1cc(COCc2ccc(C(F)(F)F)cc2)on1 (centres unmarked) [(63), N-(tetrahydrofuran-3-ylmethyl)-5-(4-trifluoromethylbenzyloxymethyl)isoxazole-3-carboxamide] |  | ≥ 80 | pest or weed control at 3.5 ppm (Culex pipiens pallens [3]): ≥ 90%; pest or weed control at 2 % strength (Musca domestica [4]): ≥ 80%; pest or weed control at 3.5 ppm (Culex pipiens pallens [5]): ≥ 90%; pest or weed control at 2 % strength (Blattella germanica [6]): ≥ 80%
9 | O=C(NCC1CCOC1)c1cc(COCc2ccc(Cl)c(Cl)c2)on1 (centres unmarked) [(72), N-(tetrahydrofuran-3-ylmethyl)-5-(3,4-dichlorobenzyloxymethyl)isoxazole-3-carboxamide] |  | ≥ 80 | pest or weed control at 500 ppm (Plutella xylostella): ≥ 90%; pest or weed control at 3.5 ppm (Culex pipiens pallens [5]): ≥ 90%; pest or weed control at 500 ppm (Spodoptera litura): ≥ 80%; pest or weed control at 0.1 % strength (Blattella germanica [7]): ≥ 80%; pest or weed control at 500 ppm (Musca domestica [1]): ≥ 90%
